The values that follow are results of earlier work, collected in patent publication US12121566B2, “Methods for treating gout” (Horizon Therapeutics USA, Inc., priority 2019, dated 2024).

Data set [1] deals with patients treated with allopurinol. Conditions: cited from earlier work.
The conditions of data set [2]: cited from earlier work; for detectable in urine: after 8 hours.
A further data set has as its system serum proteins. The following applies: cited from earlier work.
The conditions of data set [3]: cited from earlier work.

Read-outs that look alike come from different tables or passages of the source.

`Oc1ncnc2[nH]ncc12` [allopurinol]: in data set [1], the “patients who develop allergic reactions” value is recorded as “Approximately 2%” and the severe hypersensitivity syndrome result is on record as “about 0.4%”.

`Cn1cnc([N+](=O)[O-])c1Sc1ncnc2nc[nH]c12` [azathioprine, 6-[(1-methyl-4-nitro-1H-imidazol-5-yl)thio]-1H-purine]: the detectable in urine entry in data set [2] is on record as “no azathioprine or mercaptopurine is detectable”. In addition, in data set [2] (oral administration), the oral absorption result was “well absorbed”. Also, the “bound to serum proteins” value in the data set with serum proteins is reported as 30%. For the same compound, the stability in solution entry in data set [3] (excess sodium hydroxide (0.1N), especially on warming) is given as “hydrolysis to mercaptopurine occurs”; in data set [3] (neutral or acid pH), “stable”. Besides, the solubility in water entry in data set [3] (may be dissolved with one molar equivalent of alkali) is given as “insoluble”.

Regarding `Sc1ncnc2nc[nH]c12` [mercaptopurine, 6-mercaptopurine], the detectable in urine entry in data set [2] is “no azathioprine or mercaptopurine is detectable”. The “bound to serum proteins” value in the data set on serum proteins is 30%.
